Tests used:
[1] = test system: cytochrome c; assay: Detection of cytochrome c release into cytosol; format: cell-based, human; conditions: LNCaP, fisetin 10-60 μM, 48 h
Procedure: Detection of cytochrome c release. After the treatment of LNCaP cells with fisetin (10-60 μM; 48 h), the mitochondrial and cytosolic fractions were prepared according to manufacturer's instructions. After the separation of cytosolic and mitochondrial fraction, 40 μg protein was resolved over 12% polyacrylamide gels and immunoblotted with the cytochrome c and Cox-4 antibodies.

[2] = biological target: T1, ligand binding domain (LBD) of androgen receptor (AR) (Homo sapiens, UniProt P10275); assay: Competition with labeled AR ligand at the ligand binding domain (FIG. 3)
T1 sequence (P10275 669-900 limits assumed): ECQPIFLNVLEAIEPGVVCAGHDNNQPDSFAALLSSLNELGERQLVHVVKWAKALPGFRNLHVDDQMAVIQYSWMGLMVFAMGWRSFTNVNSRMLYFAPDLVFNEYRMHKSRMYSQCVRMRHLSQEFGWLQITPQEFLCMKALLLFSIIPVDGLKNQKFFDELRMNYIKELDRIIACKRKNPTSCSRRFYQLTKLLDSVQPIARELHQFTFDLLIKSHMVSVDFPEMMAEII

[3] = test system: PI3K (p85), Akt (Ser473 and Thr308); assay: Western blot, PI3K (p85) and phosphorylation of Akt in LNCaP cells; format: cell-based, human; conditions: fisetin 10-60 μM, 48 h
Procedure: Protein extraction and western blotting. Following the treatment of LNCaP cells with fisetin (10-60 μM; 48 h), the media was aspirated, the cells were washed with cold PBS (pH 7.4), and ice-cold lysis buffer (50 mM Tris-HCl, 150 mM NaCl, 1 mM EGTA, 1 mM EDTA, 20 mM NaF, 100 mM Na3VO4, 0.5% NP-40, 1% Triton X-100, 1 mM PMSF (pH 7.4)) with freshly added protease inhibitor cocktail (Protease Inhibitor Cocktail Set III, Calbiochem, La Jolla, Calif.) over ice for 30 min. The cells were scraped and the lysate was collected in a microfuge tube and passed through a needle to break up the cell aggregates. […]
For western blotting, 30-50 μg protein was resolved over 8-12% polyacrylamide gels and transferred to a nitrocellulose membrane. The blot was blocked in blocking buffer (5% nonfat dry milk/1% Tween 20; in 20 mM TBS, pH 7.6) for 1 hr at room temperature, incubated with appropriate monoclonal or polyclonal primary antibody in blocking buffer for 1.5 h to overnight at 4° C., followed by incubation with anti-mouse or anti-rabbit secondary antibody horseradish peroxidase conjugate obtained from Amersham Life Science Inc. and detected by chemiluminescence and autoradiography using XAR-5 film obtained from Eastman Kodak Co. (Rochester, N.Y., USA). […]

competition with labeled AR ligand, interaction with LBD [2]: competes with a labeled AR ligand
Compound: O=c1c(O)c(-c2ccc(O)c(O)c2)oc2cc(O)ccc12 [fisetin, 3,3′,4′,7-tetrahydroxyflavone]
levels of cytochrome c in the cytosol [1]: elevated dose-dependently
expression of regulatory (p85) subunit of PI3K [3]: inhibition
phosphorylation of Akt at Ser473 and Thr308 [3]: inhibited

Reference: patent publication US20100010078A1, “METHODS OF TREATING ANDROGEN DEPENDENT PROSTATE CANCER BY ADMINISTERING AN ACTIVE PHARMACEUTICAL INGREDIENT BEING FISETIN, 3,3',4',7-TETRAHYDROXYFLAVONE OR A DERIVATIVE THEREOF, IN AN ORAL, TRANSDERMAL OR TOPICAL DOSAGE FORM” (priority 2008, published 2010)
